The text below walks through data of ChEMBL document CHEMBL1201862, “PubChem BioAssay data set” (2004).

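Exposure lasted 48 hours, with cells grown in 96-well plates and compounds tested at five concentrations. GI50: concentration for 50% inhibition of growth.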 Active and inactive are the calls of the source. Cut-off read from the data, not from the text of the source: active = GI50 up to about 1.1 µM and inactive = higher.

Holding throughout (assay): NCI-60 cell line screen, 48 h
Assay [1] concerns XF498.
Assay [2] has as its system DLD-1.
The test system of assay [3] is LXFL 529.
Assay [4] concerns DMS-273.
Assay [5] has as its system DMS-114.
In assay [6] the test system is M19-MEL.
The subject of assay [7] is RXF 631.
In assay [8] the test system is KM-20L2.
Assay [9] relates to HOP-18.

Take `CCCCCCCCCCCCCCCCCC(=O)NCC(COP(=O)(O)O)OCC` (configuration not stated): the GI50 in assay [1] is 51.8 µM (inactive); in assay [2], > 100 µM (inactive); in assay [3] it was > 100 µM (inactive); in assay [4], 77.1 µM (inactive); in [5], 33.6 µM (inactive); in assay [6] it was > 100 µM (inactive). In assay [7], the GI50 is 25.8 µM (inactive).
`c1coc(CNc2[nH]cnc3nncc2-3)c1`: the GI50 was > 100 µM (inactive) in assay [1]; > 100 µM (inactive) in assay [8]; > 100 µM (inactive) in [2]; > 100 µM (inactive) in assay [3]; > 100 µM (inactive) in assay [4]; 44.5 µM (inactive) in assay [5]. Also, the GI50 in assay [6] and in assay [7] was > 100 µM (inactive) each time.
For the compound `Cc1ccc(C(=O)O/N=C2/CCC/C2=C\c2ccccc2)cc1`, the GI50 in assay [8], in [2], in [3], in [9], in assay [4] and in assay [5] was > 100 µM (inactive) each time. In addition, the GI50 in assay [6] was > 100 µM (inactive).
On to `COc1ccc(/C=C/C(=O)c2sc(Nc3ccc([N+](=O)[O-])cc3)nc2C)cc1`, for which the GI50 in [8] was 48.6 µM (inactive); in assay [2] it was 29.1 µM (inactive); in assay [9] it was 78.2 µM (inactive); in [4], 41.1 µM (inactive); in assay [5], 31.3 µM (inactive); in [6] it was 53.1 µM (inactive). Besides, the GI50 in assay [7] is 34.2 µM (inactive).
On to `Cn1c(CBr)nc2c1C(=O)c1nc(CBr)[nH]c(=O)c1C2=O`, for which the GI50 in assay [8] is 46.1 µM (inactive); in assay [2], > 100 µM (inactive); in assay [3], 53.7 µM (inactive); in [9], > 100 µM (inactive); in [5], > 100 µM (inactive); in [6] it was 26.8 µM (inactive). The GI50 in assay [7] is > 100 µM (inactive).
Consider `C#CCN(N=O)C(=O)NCCCC(NC(C)=O)C(=O)NCc1ccccc1` (configuration not stated), for which the GI50 is 0.0526 µM (active) in assay [1]; > 100 µM (inactive) in assay [8]; > 100 µM (inactive) in assay [2]; > 100 µM (inactive) in assay [3]; > 100 µM (inactive) in assay [9]; > 100 µM (inactive) in [5]. Moreover, the GI50 in assay [6] and in [7] was > 100 µM (inactive) in each case.
Take `CN1/C(=C/C(=O)c2ccc(Cl)cc2)Nc2ccccc21`: the GI50 in [1] was 60.3 µM (inactive); in assay [8], 29.2 µM (inactive); in assay [2], 37.4 µM (inactive); in assay [3] it was 33.2 µM (inactive); in [6], 38.2 µM (inactive); in assay [7] it was 43.3 µM (inactive).
As to `COc1cc2c(cc1OC)[C@H]1CN3CCC[C@H]3C=C1c1ccc(OC)c(O)c1-2`, the GI50 in [1], in assay [8], in assay [2], in assay [3], in assay [9] and in assay [4] was < 0.0001 µM (active) throughout. Moreover, the GI50 in [5] and in assay [6] was < 0.0001 µM (active) throughout.
`CN1c2c(O)nc(N)nc2NCC1CCNc1ccc(C(=O)NC(CCC(=O)O)C(=O)O)cc1` (configuration not stated): the GI50 in assay [1] is 394 µM (inactive); in assay [8], 573 µM (inactive); in assay [2] it was 891 µM (inactive); in assay [9], 1550 µM (inactive); in [4], 15.1 µM (inactive); in assay [5], 294 µM (inactive). Also, the GI50 in assay [6] was 222 µM (inactive).
As to `CCCCCCCC(=O)OC(CBr)COC(=O)C(C)(C)C` (configuration not stated), the GI50 is > 100 µM (inactive) in assay [1]; > 100 µM (inactive) in [8]; > 100 µM (inactive) in assay [2]; > 100 µM (inactive) in assay [3]; > 100 µM (inactive) in [9]; > 84.5 µM (inactive) in assay [4]. The GI50 in assay [5] was > 77.1 µM (inactive); in assay [6], > 84.1 µM (inactive); in [7], > 100 µM (inactive).
For `OCC[N+]12CCCN1CCC2`, the GI50 in assay [8], in assay [2], in assay [3], in [9], in assay [4] and in [5] was > 100 µM (inactive) throughout. Besides, the GI50 in [6] was > 100 µM (inactive).
For `O=[N+]([O-])C1(CO)COC2(OC1)c1ccccc1-c1ccccc12`, the GI50 in assay [8] is > 100 µM (inactive); in assay [2], 36 µM (inactive); in assay [3], > 100 µM (inactive); in assay [9], > 100 µM (inactive); in assay [4], > 100 µM (inactive); in assay [5] it was > 100 µM (inactive). Further, the GI50 in assay [6] and in assay [7] was > 100 µM (inactive) throughout.
With `N#C/C(=C1\SC(/N=N/c2ccc(Cl)cc2)C(=O)N1c1ccccc1)c1nc2ccccc2[nH]1` (configuration not stated), the GI50 in [1] was 31.3 µM (inactive); in assay [8], > 100 µM (inactive); in assay [2] it was > 100 µM (inactive); in [3], 24.6 µM (inactive); in assay [4], 36.8 µM (inactive); in [6], 28.1 µM (inactive).
For `COc1ccc(/C=C2\CCC(CN(C)C)C2=O)cc1OC` (configuration not stated), the GI50 was 13.5 µM (inactive) in [1]; 12.8 µM (inactive) in [8]; 2.69 µM (inactive) in assay [2]; 2.43 µM (inactive) in [3]; 20.8 µM (inactive) in assay [9]; 14.4 µM (inactive) in [4]. Moreover, the GI50 in assay [5] is 12.5 µM (inactive); in assay [6] it was 7 µM (inactive); in [7], 6.84 µM (inactive).
As to `COc1ccc(/C(=N/NC(=O)NN)C(c2ccc(OC)cc2)C2(O)CNc3c(Cl)cc(Cl)cc32)cc1` (configuration not stated), the GI50 in assay [8] was > 100 µM (inactive); in assay [2] it was > 100 µM (inactive); in assay [3] it was 65.6 µM (inactive); in [9], 53.2 µM (inactive); in assay [5] it was 71.8 µM (inactive); in assay [6], > 100 µM (inactive). Moreover, the GI50 in [7] was 48.3 µM (inactive).
For `Cc1cc2c(c3c1c1ccccc1n3C)C(=O)C=CC2=O`, the GI50 in assay [1] is 17.7 µM (inactive); in assay [2], 6.32 µM (inactive); in assay [3], 5.6 µM (inactive); in assay [4], 22.5 µM (inactive).
As to `COc1ccc(N2C(=O)C3c4[nH]c5ccccc5c4C4CCCCCCCCCCC4C3C2=O)cc1` (configuration not stated), the GI50 is 12.9 µM (inactive) in assay [1]; 3.15 µM (inactive) in assay [8]; 8.77 µM (inactive) in assay [2]; 6.93 µM (inactive) in assay [3]; 3.03 µM (inactive) in [9]; 6.31 µM (inactive) in [4]. The GI50 in [5] was 18 µM (inactive); in assay [6], 25.1 µM (inactive).
As for `Cc1ccc(S(=O)(=O)NC(=O)C2S(=O)(=O)OCCOS2(=O)=O)cc1`, the GI50 in assay [1], in assay [2], in assay [3], in assay [4], in [6] and in assay [7] was > 100 µM (inactive) each time.
Consider `CCOC(=O)c1[nH]c(COC(C)=O)c2c1CCCCCCCCCC2`, for which the GI50 in [1], in assay [8], in assay [2], in [3], in assay [9] and in assay [4] was > 100 µM (inactive) throughout. The GI50 in assay [5] and in [6] was > 100 µM (inactive) in each case.
With `CC(C)C(Sc1nc(-c2ccccc2)c(-c2ccccc2)[nH]1)c1n[nH]c(=S)n1-c1ccccc1` (configuration not stated), the GI50 is 37.7 µM (inactive) in [1]; 29.1 µM (inactive) in assay [8]; 41.5 µM (inactive) in assay [2]; 18.5 µM (inactive) in assay [3]; 23.6 µM (inactive) in [4]; 17.5 µM (inactive) in assay [6].
Regarding `CC(C)=CC(=O)c1c(C(=O)O)nc2ccccc2[n+]1[O-]`, the GI50 in [8], in assay [2], in assay [3], in assay [4], in assay [5] and in assay [6] was > 100 µM (inactive) in each case. Also, the GI50 in [7] was > 100 µM (inactive).
Turning to `CSc1nc(NC2OCC(OC(C)=O)C(OC(C)=O)C2OC(C)=O)c(/N=C\C=N\c2c(NC3OCC(OC(C)=O)C(OC(C)=O)C3OC(C)=O)nc(SC)n(C)c2=O)c(=O)n1C` (configuration not stated), the GI50 in [8], in assay [2], in assay [3], in [9], in assay [4] and in [5] was > 100 µM (inactive) in each case. The GI50 in [6] was > 100 µM (inactive).
As to `C=CC[P@@]1(=O)O[C@H](c2ccccc2)C(C)N1C(C)C` (some centres not stated), the GI50 in [1], in assay [2], in [3], in assay [9], in assay [4] and in assay [5] was > 100 µM (inactive) throughout. For the same compound, the GI50 in assay [6] and in assay [7] was > 100 µM (inactive) in each case.
As to `COc1cc(/C=C/c2ccc(OC(C)=O)cc2)cc(OC)c1OC`, the GI50 is 33.7 µM (inactive) in [8]; 32.3 µM (inactive) in [2]; 29.3 µM (inactive) in assay [3]; 55.3 µM (inactive) in assay [9]; 26.9 µM (inactive) in assay [4]; 22.9 µM (inactive) in [5]. The GI50 is 39.9 µM (inactive) in [6] and 11.6 µM (inactive) in assay [7].
As to `COc1cc(/C=C\c2ccccc2)cc(OC)c1OC`, the GI50 in assay [1] was 3.9 µM (inactive); in [8], 1.64 µM (inactive); in [2] it was 3.19 µM (inactive); in [3], 6.56 µM (inactive); in [9] it was > 36.8 µM (inactive); in assay [4] it was 1.24 µM (inactive). Moreover, the GI50 in assay [5] was 3.06 µM (inactive); in [6] it was 5.31 µM (inactive); in [7] it was 8.87 µM (inactive).
